molecular target: T1, cGMP-PDE prepared from the swine aeorta (Sus scrofa, UniProt A0A287B475); assay: Enzyme inhibiting action with the use of cGMP-PDE prepared from the swine aorta; assay type: biochemical; conditions: CaM-independent cGMP-PDE, 1 mM EGTA, 1 μM cGMP substrate, DMSO 4% or below
T1 construct: The swine aeorta was sliced; from tissue; host or cells: swine aorta, 100000×g supernatant, DEAE-Toyopearl 650S fraction
Procedure: Enzyme inhibiting action with the use of cGMP-PDE prepared from the swine aeorta
The enzymatic activity of the cGMP-PDE prepared from the swine aeorta was determined according to the method of Thompson et al. ^(1). The enzymatic activity thereof was determined in the presence of 1 mM EGTA by the use of 1 μM cGMP as a substrate. The compound of the present invention was dissolved in DMSO, added to the reaction liquid and examined for the inhibitory activity. The final concentration of DMSO in the reaction liquid was adjusted to 4% or below. (1) Thompson, W. J. and Strada, S. J., Cyclic Nucleotide Phosphodiesterase (PDE), in Methods of Enzymatic Analysis, vol 4, p.127-234, 1984.
The swine aeorta was sliced, followed by the addition of 10 times by volume as much Buffer A (20 mM Tris/HCl, 2 mM Mg acetate, 1 mM Dithiothreitol, 5 mM EDTA, 1400 TIU/liter aprotinin, 10 mg/liter leupeptin, 1 mM benzamidine, 0.2 mM PMSF, pH 7.5). The obtained mixture was homogenized and the homogenate was centrifuged at 100000×g for one hour. The obtained supernatant was supplied a DEAE-Toyopearl 650S (Tosoh, Tokyo, Japan) column. After the column was washed with Buffer B (50 mM Tris/HCl, 0.1 mM EGTA, 2 mM Mg acetate, 1 mM Dithiothreitol, 0.2 mM PMSF, pH 7.5), gradient elution with 0.05 to 0.4M NaCl was conducted. Thus, CaM-independent cGMP-PDE fractions were obtained.

Row | Structure (SMILES) | IC50 [nM]
1 | COc1ccc2nc(Cl)nc(NCc3ccc4c(c3)OCO4)c2c1 [Example 98, 2-Chloro-4-(3,4-methylenedioxybenzyl)amino-6-methoxyquinazoline] | 62
2 | CSc1ccc2ncnc(NCc3ccc4nc[nH]c4c3)c2c1 [Example 52, 4-(Benzimidazol-5-ylmethyl)amino-6-methylthioquinazoline] | 69
3 | COc1ccc2ncnc(NCc3ccc4c(c3)OCO4)c2c1OC [Example 72, 4-(4-Methylenedioxybenzyl)amino-5,6-dimethoxyquinazoline] | 730
4 | N#Cc1ccc2ncnc(NCc3ccc4nc[nH]c4c3)c2c1 [Example 67, 4-(Benzimidazol-5-yl)methylamino-6-cyanoquinazoline] | 140
5 | CSc1ccc2ncnc(N(CCO)Cc3ccc4c(c3)OCO4)c2c1 [Example 54, 4-[N-(2-Hydroxyethyl)-(3,4-methylenedioxybenzyl)amino]-6-methylthioquinazoline] | 470
6 | CCCOc1nc(NCc2ccc3c(c2)OCO3)c2cc(OC)c(OC)c(OC)c2n1 [Example 172, 2-Propoxy-4-(3,4-methylenedioxybenzyl)amino-6,7,8-trimethoxyquinazoline] | 95
7 | COc1cc2c(N(CCO)Cc3ccc4c(c3)OCO4)nc(Cl)nc2c(OC)c1OC [Example 105, 2-Chloro-4-[N-(2-hydroxyethyl)-(3,4-methylenedioxybenzyl)amino]-6,7,8-trimethoxyquinazoline] | 180
8 | COc1cc2nc(Cl)nc(NCc3ccc4c(c3)OCO4)c2cc1OC [Example 97] | 790
9 | Clc1ccc2nc(Cl)nc(NCc3ccc4c(c3)OCO4)c2c1 [Example 92, 2,6-Dichloro-4-(3,4-methylenedioxybenzyl)aminoquinazoline] | 94
10 | COCCN(Cc1ccc2c(c1)OCO2)c1ncnc2ccc(SC)cc12 [Example 53, 4-[N-(2-Methoxyethyl)-(3,4-methylenedioxybenzyl)amino]-6-methylthioquinazoline] | 120
11 | COc1ccc2nc(OC)nc(NCc3ccc4c(c3)OCO4)c2c1 [Example 89, 2,6-Dimethoxy-4-(3,4-methylenedioxybenzyl)aminoquinazoline] | 160
12 | NC(=O)CNc1nc(NCc2ccc3c(c2)OCO3)c2cc(Cl)ccc2n1 [Example 197] | 66
13 | Clc1ccc2ncnc(NCc3ccc(Cl)c(Cl)c3)c2c1 [Example 58, 4-(3,4-Dichlorobenzyl)amino-6-chloroquinazoline] | 42
14 | COc1cc2c(NCc3ccc4c(c3)OCO4)nc(NCCO)nc2c(OC)c1OC [Example 187, 2-(2-Hydroxyethyl)amino-4-(3,4-methylenedioxybenzyl)amino-6,7,8-trimethoxyquinazoline] | 120
15 | Nc1nc(NCc2ccc3c(c2)OCO3)c2cc(Cl)ccc2n1 [Example 200, 2-Amino-4-(3,4-methylenedioxybenzyl)amino-6-chloroquinazoline] | 64
16 | COc1cc(OC)c2ncnc(NCc3ccc4c(c3)OCO4)c2c1 [Example 71, 4-(3,4-Methylenedioxybenzyl)amino-6,8-dimethoxyquinazoline] | 810

Compounds with a lower IC50, results first:

Row | IC50 [nM] | Structure (SMILES)
17 | 32 | CSc1ccc2ncnc(NCc3ccc(Cl)c(Cl)c3)c2c1 [Example 50, 4-(3,4-Dichlorobenzyl)amino-6-methylthioquinazoline]
18 | 2.1 | COc1ccc(CNc2cc(N3CCC(C(=O)O)CC3)nc3ccc(Cl)cc23)cc1Cl [Example 256, 2-(4-Carboxypiperidino)-4-(3-chloro-4-methoxybenzyl)amino-6-chloroquinoline]
19 | 29 | COCCOc1nc(NCc2ccc3c(c2)OCO3)c2cc(OC)ccc2n1 [Example 170, 2-(2-Methoxyethoxy)-4-(3,4-methylenedioxybenzyl)amino-6-methoxyquinazoline]
20 | 11 | OCC(O)COc1nc(NCc2ccc3c(c2)OCO3)c2cc(Cl)ccc2n1 (stereo not drawn) [Example 178, 2-(2,3-Dihydroxypropyl)oxy-4-(3,4-methylenedioxybenzyl)amino-6-chloroquinazoline]
21 | 7.2 | CCOC(=O)CON=Cc1nc(NCc2ccc3c(c2)OCO3)c2cc(Cl)ccc2n1 [Example 150, 2-Ethoxycarbonylmethoxyiminomethyl-4-(3,4-methylenedioxybenzyl)amino-6-chloroquinazoline]
22 | 31 | C/C(=C/c1nc(NCc2ccc3c(c2)OCO3)c2cc(Cl)ccc2n1)C(=O)O [Example 123, (Z)-2-(2-carboxy-1-propenyl)-4-(3,4-methylenedioxybenzyl)amino-6-chloroquinazoline]
23 | 29 | OCCNc1nc(NCc2ccc3c(c2)OCO3)c2cc(Cl)ccc2n1 [Example 188, 2-(2-Hydroxyethyl)amino-4-(3,4-methylenedioxybenzyl)amino-6-chloroquinazoline]
24 | 21 | COc1ccc2nc(CO)nc(NCc3ccc4c(c3)OCO4)c2c1 [Example 139, 2-Hydroxymethyl-4-(3,4-methylenedioxybenzyl)amino-6-methoxyquinazoline]
25 | 3 | OCCCCCCOc1nc(NCc2ccc3c(c2)OCO3)c2cc(Cl)ccc2n1 [Example 176]
26 | 0.24 | CCOC(=O)CCCN(C)c1nc(NCc2ccc(OC)c(Cl)c2)c2cc(C#N)ccc2n1 [Example 220]
27 | 10 | N#Cc1ccc2nc(Cl)nc(NCc3ccc4nc[nH]c4c3)c2c1 [Example 104, 2-Chloro-4-(benzimidazol-5-yl)methylamino-6-cyanoquinazoline]
28 | 11 | N#Cc1ccc2nc(OCCO)nc(NCc3ccc4c(c3)OCO4)c2c1 [Example 169, 2-(2-Hydroxyethoxy)-4-(3,4-methylenedioxybenzyl)amino-6-cyanoquinazoline]
29 | 2 | COc1ccc(CNc2nc(N3CCC(C(=O)O)CC3)nc3ccc(Cl)cc23)cc1Cl [Example 235, 2-(4-Carboxypiperidino)-4-(3-chloro-4-methoxybenzyl)amino-6-chloroquinazoline]
30 | 5 | NC(=O)c1nc(NCc2ccc3c(c2)OCO3)c2cc(Cl)ccc2n1 [Example 134, 2-Carbamoyl-4-(3,4-methylenedioxybenzyl)amino-6-chloroquinazoline]
31 | 8 | COCCOc1nc(NCc2ccc3c(c2)OCO3)c2cc(Cl)ccc2n1 [Example 164, 2-(2-Methoxyethoxy)-4-(3,4-methylenedioxybenzyl)amino-6-chloroquinazoline]
32 | 0.52 | COc1ccc(CNc2nc(N3CCC(C(=O)O)CC3)nc3ccc(C#N)cc23)cc1Cl [Example 228, 2-(4-Carboxypiperidino)-4-(3-chloro-4-methoxybenzyl)amino-6-cyanoquinazoline]
33 | 16 | COc1nc(NCc2ccc3c(c2)OCO3)c2cc(Cl)ccc2n1 [Example 165, 2-Methoxy-4-(3,4-methylenediokybenzyl)amino-6-chloroquinazoline]
34 | 9 | CSc1nc(NCc2ccc3c(c2)OCO3)c2cc(Cl)ccc2n1 [Example 180, 2-Methylthio-4-(3,4-methylenedioxybenzyl)amino-6-chloroquinazoline]
35 | 24 | CCCOc1ccccc1-c1nc(NCc2ccc3c(c2)OCO3)c2cc(Cl)ccc2n1 [Example 83, 2-(2-Propoxyphenyl)-4-(3,4-methylenedioxybenzyl)amino-6-chloroquinazoline]
36 | 2 | N#Cc1ccc2nc(OCCCC(=O)O)nc(NCc3ccc4c(c3)OCO4)c2c1 [Example 179, 2-(3-Carboxypropyl)oxy-4-(3,4-methylenedioxybenzyl)amino-6-cyanoquinazoline]

— US5801180A, “Quinazoline derivatives” (priority 1991, dated 1998)
